Experimental data as given in US20240261422A1, “ANTHRACYCLINE ANTIBODY CONJUGATES” (SEAGEN INC., priority 2021, published 2024).
Where two headings read alike, the source gives them in different places.

Experiments:
HL60, AML = assay: In vitro growth inhibition (CellTiter-Glo, 96 h), HL60; type: cell-based; settings: for IC50: Homo sapiens, read-out: IC50 (nM) HL60, AML; for IC50 (ng/mL) HL60, AML: cOKT9 ADCs, average DAR 8, 96 h
Method: (§1) Cell culture of cell lines as listed in Table 2-4 in log-phase growth were seeded in 96-well plates and grown for 24 h in cell culture media containing 150 μL RPMI 1640 supplemented with 20% FBS (see Mol. Cancer Ther., 2016, 15(5), 938-945 and Mol. Cancer Ther., 2018, 17(8), 1752-1760). Serial dilutions of free drugs or antibody-drug conjugates (final concentration between 0.004 nM and 1 μM) in cell culture media were prepared at 4× working concentrations; 50 μL of each dilution was added to the 96-well plates. Following addition of the drug or ADC, the cells were incubated with test articles (free drugs or ADCs) for 4 d at 37° C. After 96 h, growth inhibition was assessed by CellTiter-Glo® (Promega, Madison, WI) and luminescence was measured on a plate reader (brand, model).
(§2) Cells were treated for 96 hours with anthracycline analogues listed in Table 2, and then assessed for viability as described in the procedures as described above. […] ND denotes value not determined with that assay for the specified compound.
(§3) ADCs were prepared by full reduction of interchain disulfides to reveal 8-conjugatable cysteines/antibody, and subsequent alkylation with the maleimide-containing drug-linkers (Compounds 14, 18, 21, 24, 29, 32, 33, 34, and 48) according to the procedures described in Mol. Cancer Ther. 2018, 17(8). 1752-1760. Conjugates of antibody cOKT9 were prepared with anthracycline linkers. Cancer cell lines were treated with cOKT9 ADCs (average DAR of 8:1) for 96 h and then assessed for viability. […] ND denotes value not determined with that assay for the specified compound.

HL60/RV, MDR + AML = assay: In vitro growth inhibition (CellTiter-Glo, 96 h), HL60/RV; type: cell-based; settings: for IC50: Homo sapiens, read-out: IC50 (nM) HL60/RV, MDR + AML; for IC50 (ng/mL) HL60/RV, MDR + AML: cOKT9 ADCs, average DAR 8, 96 h
Method: as §1, §2, §3

L540cy, HL = assay: In vitro growth inhibition (CellTiter-Glo, 96 h), L540cy; type: cell-based; settings: for IC50: L540cy, 96 h, read-out: IC50 (nM) L540cy, HL
Method: as §1, §2, §3
(§4) Anti-CD30 ADCs comprising cAC10 antibody conjugated to drug-linkers 24, 32, 29, 18, 14, and 48 with an average DAR of 4 were prepared for evaluation on a CD30-expressing lymphoma cell line panel. […] Anti-CD30 conjugates bearing the PNU linkers 24, 32, 29, 18, and 14 were active on L540cy, DEL, and Karpas299 lymphoma cell lines, and conjugate 48 was active on L540cy and DEL cell lines, with IC50s ranging from 0.2-4 ng/mL.

BxPC3, PancCa = assay: In vitro growth inhibition (CellTiter-Glo, 96 h), BxPC3; type: cell-based; settings: for IC50: Homo sapiens, read-out: IC50 (nM) BxPC3, PancCa; for IC50 (ng/mL) BxPC3, PancCa: cOKT9 ADCs, average DAR 8, 96 h
Method: as §1, §2, §3

[1] = system: L540cy, 786-O, BxPC3, HL60, HL60/RV; assay: cells; settings: 96 h, read-out: IC50 values on the cancer lines tested
786-O, MDR + RCC = assay: In vitro growth inhibition (CellTiter-Glo, 96 h), 786-O; type: cell-based; settings: for IC50: Homo sapiens, read-out: IC50 (nM) 786-O, MDR + RCC; for IC50 (ng/mL) 786-O, MDR + RCC: cOKT9 ADCs, average DAR 8, 96 h
Method: as §1, §2, §3

[2] = system: L540cy Hodgkin's lymphoma xenograft; assay: L540cy CD30+ Hodgkin lymphoma xenograft model; type: in vivo, SCID mice; settings: cAC10 S239C ADCs, average DAR 2; single dose i.p. at about 100 mm^3
Method: (§5) All experiments were conducted in concordance with the Animal Care and Use Committee in a facility fully accredited by the Association for Assessment and Accreditation of Laboratory Animal Care. Efficacy experiments were conducted using the L540cy Hodgkin's lymphoma and DEL/BVR anaplastic large cell lymphoma xenograft models (Mol. Cancer Ther., 2018, 17(8), 1752-1760). Tumor cells, as a cell suspension, were implanted subcutaneously in immune-compromised SCID female mice. Upon tumor engraftment, the mice were randomized into study groups when the average tumor volume reached about 100 mm^3. The ADCs were dosed once via intraperitoneal injection. Tumor volume as a function of time was determined using the formula (L×W2)/2. Animals were euthanized when tumor volumes reached 1000 mm^3.
Anti-CD30 conjugates bearing PNU drug-linkers 29, 18, and 14 were evaluated in a CD30-expressing xenograft model as described above. cAC10 antibody with the S239C mutation is conjugated to the PNU drug linkers with an average DAR of 2 to minimize the effects of ADC pharmacokinetics. Tumor-bearing mice were administered a single dose intraperitoneally (i.p.) of test article once the average tumor volume reached 100 mm^3 (typically on day 8). Untreated mice were used as negative controls.

Karpas299, ALCL = assay: In vitro growth inhibition (CellTiter-Glo, 96 h), Karpas299; type: cell-based; settings: cAC10 (anti-CD30) ADCs, average DAR 4
Method: as §1, §4

[3] = system: DEL/BVR anaplastic large cell lymphoma xenograft; assay: DEL/BVR MDR+, CD30+ anaplastic large cell lymphoma xenograft model; type: in vivo, SCID mice; settings: cAC10 S239C ADCs, average DAR 2; 3 mg/kg single dose i.p.
Method: as §5
Anti-CD30 conjugates bearing PNU drug-linkers 29, 18, and 14 were further evaluated in a DEL/BVR MDR+, CD30+ anaplastic large cell lymphoma xenograft model. cAC10 antibody with the S239C mutation is conjugated to the PNU drug linkers with an average DAR of 2 to minimize the effects of ADC pharmacokinetics. Tumor-bearing mice were administered a 3 mg/kg single dose intraperitoneally (i.p.) of test article once the average tumor volume reached 100 mm^3 (typically on day 4). […] However, the conjugate comprising PNU linker 29 appeared to be non-efficacious, and only provided minimal tumor growth delay (FIG. 2). Untreated mice were used as negative controls.

Ramos, CD30 − NHL = assay: In vitro growth inhibition (CellTiter-Glo, 96 h), Ramos; type: cell-based; settings: cAC10 (anti-CD30) ADCs, average DAR 4
Method: as §1, §4

[4] = system: L540cy, 786-O, BxPC3, HL60, HL60/RV; settings: 24 h
DEL, ALCL = assay: In vitro growth inhibition (CellTiter-Glo, 96 h), DEL; type: cell-based; settings: cAC10 (anti-CD30) ADCs, average DAR 4
Method: as §1, §4

L428, MDR + HL = assay: In vitro growth inhibition (CellTiter-Glo, 96 h), L428; type: cell-based; settings: cAC10 (anti-CD30) ADCs, average DAR 4
Method: as §1, §4

[5] = HL-60, anthracycline free drugs, 96 h
[6] = BXPC-3, anthracycline free drugs, 96 h
[7] = 786-0, anthracycline free drugs, 96 h
[8] = cAC10 (anti-CD30) ADCs, average DAR 4
[9] = cOKT9 ADCs, average DAR 8, 96 h

Structure (SMILES) | IC50 (HL60, AML; [5]) | IC50 (HL60/RV, MDR + AML; [5]) | IC50 (L540cy, HL; anthracycline free drugs) | IC50 (BxPC3, PancCa; [6]) | IC50 [1] | IC50 (786-O, MDR + RCC; [7]) | IC50 (ng/mL) HL60, AML (HL60, AML) | IC50 (ng/mL) HL60/RV, MDR + AML (HL60/RV, MDR + AML) | IC50 (ng/mL) L540cy, HL (L540cy, HL; [8]) | IC50 (ng/mL) L540cy, HL (L540cy, HL; [9]) | IC50 (ng/mL) BxPC3, PancCa (BxPC3, PancCa) | IC50 (ng/mL) Karpas299, ALCL (Karpas299, ALCL) | IC50 (ng/mL) Ramos, CD30 − NHL (Ramos, CD30 − NHL) | IC50s of cOKT9 conjugates [4] | IC50 (ng/mL) DEL, ALCL (DEL, ALCL) | IC50 (ng/mL) 786-O, MDR + RCC (786-O, MDR + RCC) | IC50 (ng/mL) L428, MDR + HL (L428, MDR + HL) | other results
COc1cccc2c1C(=O)c1c(O)c3c(c(O)c1C2=O)C[C@@](O)(C(=O)CO)C[C@@H]3O[C@H]1C[C@H](N)[C@H](O)[C@H](C)O1 [Compound 1, Doxorubicin, reference compound] | 10 to 100 nM | 100 to 1000 nM | 10 to 100 nM | 100 to 1000 nM | 13 to 390 nM | 10 to 100 nM |  |  |  |  |  |  |  |  |  |  |  | 
COc1cccc2c1C(=O)c1c(O)c3c(c(O)c1C2=O)C[C@@](O)(C(=O)O)C[C@@H]3O[C@H]1C[C@H](N)[C@H](O)[C@H](C)O1 [Compound 2, (2S,4S)-4-(((2R,4S,5S,6S)-4-amino-5-hydroxy-6-methyltetrahydro-2H-pyran-2-yl)oxy)-2,5,12-trihydroxy-7-methoxy-6,11-dioxo-1,2,3,4,6,11-hexahydrotetracene-2-carboxylic acid] | > 1000 nM | > 1000 nM | > 1000 nM | > 1000 nM | > 1000 nM | > 1000 nM |  |  |  |  |  |  |  |  |  |  |  | 
COc1cccc2c1C(=O)c1c(O)c3c(c(O)c1C2=O)C[C@@](O)(C(=O)CO)C[C@@H]3O[C@H]1C[C@H](N2CCO[C@H](OC)C2)[C@H](O)[C@H](C)O1 [Compound 3, Nemorubicin, reference compound] |  |  |  |  | 2 to 3 nM |  |  |  |  |  |  |  |  |  |  |  |  | IC50 (L540cy, HL): < 10 nM; IC50 (BxPC3, PancCa; BXPC-3, 96 h): < 10 nM; IC50 (786-O, MDR + RCC; 786-0, 96 h): < 10 nM
COc1cccc2c1C(=O)c1c(O)c3c(c(O)c1C2=O)C[C@@](O)(C(=O)O)C[C@@H]3O[C@H]1C[C@H]2[C@H](O[C@@H]3[C@@H](OC)OCCN32)[C@H](C)O1 [Compound 6, (2S,4S)-2,5,12-trihydroxy-7-methoxy-4-(((1S,3R,4aS,9S,9aR,10aS)-9-methoxy-1-methyloctahydro-1H-pyrano[4′,3′:4,5]oxazolo[2,3-c][1,4]oxazin-3-yl)oxy)-6,11-dioxo-1,2,3,4,6,11-hexahydrotetracene-2-carboxylic acid] |  |  | < 10 nM | 10 to 100 nM | 5 to 19 nM | < 10 nM |  |  |  |  |  |  |  |  |  |  |  | IC50 (HL60, AML; HL-60, 96 h): 10 to 100 nM; IC50 (HL60/RV, MDR + AML; HL-60, 96 h): 10 to 100 nM
COc1cccc2c1C(=O)c1c(O)c3c(c(O)c1C2=O)C[C@@](O)(C(=O)NCCNC(=O)CCN1C(=O)C=CC1=O)C[C@@H]3O[C@H]1C[C@H]2[C@H](O[C@@H]3[C@@H](OC)OCCN32)[C@H](C)O1 [Compound 14, (2S,4S)—N-(2-(3-(2,5-dioxo-2,5-dihydro-1H-pyrrol-1-yl)propanamido)ethyl)-2,5,12-trihydroxy-7-methoxy-4-(((1S,3R,4aS,9S,9aR,10aS)-9-methoxy-1-methyloctahydro-1H-pyrano[4′,3′:4,5]oxazolo[2,3-c][1,4]oxazin-3-yl)oxy)-6,11-dioxo-1,2,3,4,6,11-hexahydrotetracene-2-carboxamide] |  |  |  |  |  |  | C (100 ng/mL≤IC50<1000 ng/mL) | D (IC50≥1000 ng/mL) | B (1 ng/mL≤IC50<10 ng/mL) | A (IC50<10 ng/mL) | A (IC50<10 ng/mL) | A (IC50<1 ng/mL) | E (IC50≥500 ng/mL) | 1 to 150 ng/mL | B (1 ng/mL≤IC50<10 ng/mL) | A (IC50<10 ng/mL) | B (1 ng/mL≤IC50<10 ng/mL) | antitumor activity, L540cy xenograft (FIG. 1) [2]: active with a majority of animals in a complete regression; antitumor activity, DEL/BVR xenograft (FIG. 2) [3]: efficacious in suppressing tumor growth
COc1cccc2c1C(=O)c1c(O)c3c(c(O)c1C2=O)C[C@@](O)(C(=O)N(C)CCN(C)C(=O)OCc1ccc(NC(=O)[C@H](C)NC(=O)[C@@H](NC(=O)CCN2C(=O)C=CC2=O)C(C)C)cc1)C[C@@H]3O[C@H]1C[C@H]2[C@H](O[C@@H]3[C@@H](OC)OCCN32)[C@H](C)O1 [Compound 32, 4-((S)-2-((S)-2-(3-(2,5-dioxo-2,5-dihydro-1H-pyrrol-1-yl)propanamido)-3-methylbutanamido)propanamido)benzyl methyl(2-((2S,4S)-2,5,12-trihydroxy-7-methoxy-4-(((1S,3R,4aS,9S,9aR,10aS)-9-methoxy-1-methyloctahydro-1H-pyrano[4′,3′:4,5]oxazolo[2,3-c][1,4]oxazin-3-yl)oxy)-N-methyl-6,11-dioxo-1,2,3,4,6,11-hexahydrotetracene-2-carboxamido)ethyl)carbamate] |  |  |  |  |  |  | B (10 ng/mL≤IC50<100 ng/mL) | C (100 ng/mL≤IC50<1000 ng/mL) | C (10 ng/mL≤IC50<100 ng/mL) | B (10 ng/mL≤IC50<100 ng/mL) | B (10 ng/mL≤IC50<100 ng/mL) | B (1 ng/mL≤IC50<10 ng/mL) | D (100 ng/mL≤IC50<500 ng/mL) | 1 to 150 ng/mL | B (1 ng/mL≤IC50<10 ng/mL) | C (100 ng/mL≤IC50<1000 ng/mL) | E (IC50≥500 ng/mL) | activity of cOKT9 conjugates on multidrug resistant HL60/RV (HL60/RV, MDR + AML; cOKT9 ADCs DAR 8, result in words): active
